Results on eight compounds are retold here after US6586391B1, “Method of ameliorating erectile dysfunction” (Queen's University at Kingston, priority 1996, dated 2003).

In one assay the test system is pudendal vasculature. In words: Isolated perfusion of the pudendal vasculature, perfusion pressure response. Also on record: species or system rat. Here is the method: Vascular responses using the isolated perfusion of the pudendal vasculature preparation have been assessed. FIG. 3 illustrates the dose response curve to the α-adrenoceptor agonist methoxamine (MXA) alone. FIG. 4 illustrates the dose-response curve to endothelin alone.
Male Wistar rats (400-500 g), obtained from Charles River Laboratories (Montreal, Quebec, Canada), were housed individually under conditions of a 12 h light/12 h dark cycle (temperature of 22-24° C.), and were provided with Purina Rodent Chow and tap water ad libitum for at least two days before starting any experiment.
The rats were anaesthetized with sodium pentabarbital (60 mg/kg i.p.) and the lower abdominal aorta was exposed through a mid-line incision. The isolation of the pudendal vasculature was developed by sequential ligation of all branches of the abdominal aorta not directly supplying the pudendal vasculature. The following arteries were dissected free and ligated: iliaca, femoralis, poplitea, glutea cranial, umbilicalis, epigastria caudal, pudenda external, glutea caudal, obturatoria, circumflexa femoris lateral, circumflexa femoris medial. After heparinization (1000 U/kg), the abdominal aorta was cannulated with a smooth, blunted 19-gauge needle. The arterial catheter was placed caudad into the aorta and the vena cava was cut and vented freely through the widely open abdominal cavity. The tip of the needle was advanced down the aorta to the iliac bifurcation and sutured in place. […] The perfusate was infused for 10 min, to flush the penile vasculature of blood, before starting any experiment.
The perfusate consisted of dextran (15%, average molecular weight: 71,400 Da, Sigma, St. Louis, Mo., U.S.A.) in Tyrode's solution (pH 7.4), which was aerated with 95% O2 and 5% CO2. The composition of the Tyrode's solution was KCI 20, CaCl2.2H2O 32.3, MgCl2.6H2O 5.1, NaH2PO4.2H2O 6.2, NaHCO3 100, glucose 100, and NaCl 800 mg per 100 mL fluid. The perfusate was held in a reservoir, and passed through a bubble trapping/mixing chamber and heating bath by an injection port located prior to the bubble trap for the introduction of pharmacological agents. An in-line peristaltic pump was used to establish flow at 0.5 mL/kg/min (Minipuls 2, Gilson Medical Elec., Inc., Middleton, Wis., U.S.A.). Added pharmacological agents, methoxamine (MXA) and sodium nitroprusside (SNP), were delivered by a syringe pump (Harvard Apparatus Infusion/Withdrawal Pump, Millis, Mass., U.S.A.). A servo-controlled heat chamber served to maintain rectal temperature at 36-38° C.

The subject of assay [1] is Male Sprague-Dawley rats. In words: Experiment 2: effects of PD 145065 or losartan before or after NOS blockade on MAP. In kind it is in vivo, rat. Here is the method: (§1) Male Sprague-Dawley rats (325-400 g) obtained from Charles River Laboratories (Montreal, Quebec, Canada) were housed individually under conditions of a 12 h light/12 h dark cycle, with room temperature at 22-24° C., and were provided with Purina Rodent Chow and tap water ad libitum for at least 2 days before any experiments were started.
The surgical method was based on the technique of Thompson et at. (Hypertension 20: 809-815 (1992)). […] Two days after surgery, MAP could be recorded (Narco Physiograph, E&I Instruments, Houston, Tex. or MacLab Data Acquisition System, ADInstruments, Milford, Mass., U.S.A.). […] Baseline MAP was determined from mean readings over 5 min, taken from each rat at 15 min intervals for at least 1 h prior to the start of any experiment. […] MAP values are expressed as an average MAP over 2-3 min following the establishment of a new steady state (i.e., MAP is no longer changing).
After obtaining appropriate baseline steady-state levels of MAP, the effects of administration of losartan (30 mg/kg i.p., n=3, under 30 mg/kg i.p. pentabarbital anesthetic) or PD 145065 (10 mg/kg/min, i,v., n=6, conscious rats previously catheterized) on resting MAP and then on the L-NAME (100 mg/kg, i.p.)-induced pressor response were assessed in two ways. […]

A further assay relates to adult Wistar rats. In words: Apomorphine-induced erection model. In kind it is in vivo, rat. As to the method:
Using the well-established apomorphine (APO)-induced erection model (apomorphine 80 μg/kg, administered subcutaneously), we counted the erections per 30 min interval in adult Wistar rats, per the protocol of Heaton, J. P. W., et al. (1991)(43). Rats were pretested with apomorphine alone to confirm and quantify normal erectile response(control Groups A and B). Rats were then treated with L-NAME (100 mg/kg, administered intraperitoneally) alone, acutely (at<1 h) and at 3 h; or the combination of ETA/B antagonist (PD 145065, 5 mg/kg/min, continuous intravenous infusion)+L-NAME.

In assay [2] the test system is Male Sprague-Dawley rats. In words: Experiment 1: cumulative vasoconstrictor blockade following acute NO synthase inhibition, MAP response. In kind it is in vivo, rat. Particulars: for % of range (MAP lowering as % of MAPrange) / delta MAP (peak MAP lowering): sequential cumulative blockade, mean ± S.D. Here is the method: as §1
The surgical method was based on the technique of Thompson et at. (Hypertension 20: 809-815 (1992)). In brief, rats were anesthetized with ketamine/xylazine (70/5 mg/kg i.p.), and the descending aorta distal to the kidneys was catheterized with small bore TEFLON® tubing (0.012-in. i.d., o.d. 30 gauge, Cole-Parmer, Laval, Quebec, Canada) inserted into vinyl tubing (0.02-in. i.d., 0.060-in, o.d., 23 gauge). […] The catheters were filled with heparinized saline (10 IU/mL) and held in place by a small amount of cyanoacrylate tissue glue at the puncture site. The catheters were tunneled subcutaneously and exteriorized at the back of the neck and sutured in place. Two days after surgery, MAP could be recorded (Narco Physiograph, E&I Instruments, Houston, Tex. or MacLab Data Acquisition System, ADInstruments, Milford, Mass., U.S.A.). After connection, an equilibration period of approximately 30 min was allowed for the determination of the steady state level of MAP before any recording began. Baseline MAP was determined from mean readings over 5 min, taken from each rat at 15 min intervals for at least 1 h prior to the start of any experiment. After obtaining a baseline MAP, the cumulative/sequential vasoconstrictor blockade was started. MAP values are expressed as an average MAP over 2-3 min following the establishment of a new steady state (i.e., MAP is no longer changing).
NOS was inhibited by a single i.p. injection of N^ω-nitro-L-arginine-methyl ester (L-NAME, Sigma, 100 mg/kg; 100 mg/mL 0.9% sterile saline solution, Baxter Corp., Toronto, Ontario, Canada). The α1-adrenoceptor antagonist prazosin® (Sigma Chemical Company, St. Louis, Mo., U.S.A.) at a dose of 1 mg/Kg (in 0.9% saline and 5% ethanol [vol/vol], total volume 1 mL/kg) was used to block the majority of the SNS induced peripheral vasoconstriction. The non-peptide AT1 receptor antagonist losartan® (Dupont-Merck, 30 mg/kg i.p.) was used to block the effects of Ang II. The V1/V2 receptor antagonist [β-mercapto-β, β-cyclopenta-methylenepropionyl, O-Et-Tyr2-Val4-Arg8]-vasopressin (AVP) (20 μg/kg/min i.v., Sigma) was utilized to block the effects of vasopressin. The effects of the endothelin vasoconstrictor system, via ETA and ETB receptors, were blocked with a commercially available endothelin antagonist PD 145065 (100 mg/kg/min i.v., bolus, donated by Parke-Davis Pharmaceuticals). Each rat in the study received all of the aforementioned vasoconstrictor antagonists (i.e., a cumulative/sequential blockade).
The interval between administration was up to 15 min, where a new steady state MAP had been established before the blockade of the next vasoconstrictor system.
All data are expressed as a peak MAP lowering as a mean±S.D. Comparison of means between groups at each treatment level was done using a Student's T-test with the Bonferroni correction method, where appropriate.

The conditions of assay [3]: background statement; cited from earlier work.
Setting [4] is: L-NAME (100 mg/kg i.p.) treated group.

In the case of `CC[C@H](C)[C@H](NC(=O)[C@H](CC(=O)O)NC(=O)[C@H](CC(C)C)NC(=O)[C@H](Cc1c[nH]cn1)NC(=O)[C@@H]1CSSC[C@H](N)C(=O)N[C@@H](CO)C(=O)N[C@H]2CSSC[C@H](NC(=O)[C@H](CCC(=O)O)NC(=O)[C@H](CCCCN)NC(=O)[C@H](CC(=O)O)NC(=O)[C@H](CCSC)NC(=O)[C@H](CC(C)C)NC(=O)[C@H](CO)NC(=O)[C@H](CO)NC2=O)C(=O)N[C@@H](C(C)C)C(=O)N[C@@H](Cc2ccc(O)cc2)C(=O)N[C@@H](Cc2ccccc2)C(=O)N1)C(=O)N[C@H](C(=O)N[C@@H](Cc1c[nH]c2ccccc12)C(=O)O)[C@@H](C)CC` [Endothelin], in the assay with pudendal vasculature (Endothelin sub-pressor alone, methoxamine 0 μg/ml, n = 4), the “Δ Perfusion Pressure” value turned out to be 0 mmHg.
Take `COC(=O)[C@@H](N)CCCNC(=N)N[N+](=O)[O-]` [L-NAME, N^ω-nitro-L-arginine-methyl ester]: the “delta MAP response 20 min after L-NAME” value in the assay on Male Sprague-Dawley rats [1] (saline pre-treatment group, L-NAME 100 mg/kg i.p.) worked out at 40±8 mmHg. In addition, the “mean number of erections per 30 min interval” value with adult Wistar rats (L-NAME 100 mg/kg i.p. alone, at 3 h, apomorphine-induced) is 3.7 ± 1.38. The “steady state level of MAP” value with Male Sprague-Dawley rats [2] (L-NAME-treated animals, before vasoconstrictor blockade) is listed as 108±9 mmHg. For the same compound, the “experimentally induced pressure increase as a result of NOS inhibition” value in the assay with Male Sprague-Dawley rats [2] (rats) is reported as 30-40%.
For the compound `CN1CCc2cccc3c2[C@H]1Cc1ccc(O)c(O)c1-3` [apomorphine], the “mean number of erections per 30 min interval” value is recorded as 3.0 ± 1.31 in the assay on adult Wistar rats (Group-A (control): apomorphine 80 μg/kg s.c. alone, mean ± S.D.) and 2.5 ± 0.58 with adult Wistar rats (Group-B (control): apomorphine 80 μg/kg s.c. alone, mean ± S.D.).
For the compound `CCCCc1nc(Cl)c(CO)n1Cc1ccc(-c2ccccc2-c2nn[nH]n2)cc1` [losartan], the “level of MAP after treatment” value in the assay with Male Sprague-Dawley rats [1] (losartan 30 mg/kg i.p., pentabarbital anesthetic, baseline 100±15 mmHg) came to 78±21 mmHg. In addition, in the assay on Male Sprague-Dawley rats [2] (setting [4]), the “% of range (MAP lowering as % of MAPrange)” value worked out at 24 ± 12% and the “delta MAP (peak MAP lowering)” value is 25 ± 13 mmHg. In addition, in the assay with Male Sprague-Dawley rats [2] (saline control group), the “% of range (MAP lowering as % of MAPrange)” value amounted to 27 ± 8% and the “delta MAP (peak MAP lowering)” value is on record as 20 ± 6 mmHg.
On to `COc1ccc(OC)c(C(O)C(C)N)c1` (stereo not drawn) [methoxamine], for which the “Δ Perfusion Pressure” value in the assay with pudendal vasculature (Control, methoxamine 0.1 μg/ml, n = 6) stood at 0 mmHg; in the assay on pudendal vasculature (Control, methoxamine 0.25 μg/ml, n = 6) it was 0 mmHg; in the assay with pudendal vasculature (Control, methoxamine 0.5 μg/ml, n = 6), 0 mmHg; in the assay on pudendal vasculature (Control, methoxamine 1.0 μg/ml, n = 6) it was 4 ± 1 mmHg; with pudendal vasculature (Control, methoxamine 2.0 μg/ml, n = 6), 11 ± 2 mmHg; in the assay with pudendal vasculature (Control, methoxamine 4.0 μg/ml, n = 6), 36 ± 11 mmHg. Besides, the “Δ Perfusion Pressure” value in the assay on pudendal vasculature (Control, methoxamine 8.0 μg/ml, n = 6) turned out to be 67 ± 24 mmHg; in the assay on pudendal vasculature (Endothelin sub-pressor, methoxamine 0.1 μg/ml, n = 4), 0 mmHg; in the assay with pudendal vasculature (Endothelin sub-pressor, methoxamine 0.25 μg/ml, n = 4) it was 34 ± 2 mmHg; in the assay with pudendal vasculature (Endothelin sub-pressor, methoxamine 0.5 μg/ml, n = 4) it was 93 ± 30 mmHg; in the assay on pudendal vasculature (Endothelin sub-pressor, methoxamine 1.0 μg/ml, n = 4) it was 168 ± 16 mmHg. The “shift of MXA concentration-response (perfusion pressure) relationship to lower concentrations” value in the assay on pudendal vasculature (with low sub-pressor dose of endothelin vs MXA alone) is reported as “more than 10 fold”.
Turning to `COc1cc2nc(N3CCN(C(=O)c4ccco4)CC3)nc(N)c2cc1OC` [prazosin], in the assay on Male Sprague-Dawley rats [2] (setting [4]), the “% of range (MAP lowering as % of MAPrange)” value is 25 ± 10 % and the “delta MAP (peak MAP lowering)” value is 27 ± 14 mmHg. Further, in the assay on Male Sprague-Dawley rats [2] (saline control group), the “% of range (MAP lowering as % of MAPrange)” value is 48 ± 8% and the “delta MAP (peak MAP lowering)” value is 36 ± 6 mmHg.
With “ET-1: endothelin-1, vasoconstrictor peptide”, the “potency as a vasoconstrictor relative to Ang II or catecholamines” value in assay [3] is recorded as “approximately 100 times”.
As for “[β-mercapto-β, β-cyclopenta-methylenepropionyl, O-Et-Tyr2-Val4-Arg8]-vasopressin [(O-ET)VAVP]”, in the assay on Male Sprague-Dawley rats [2] (setting [4]), the “% of range (MAP lowering as % of MAPrange)” value is 15 ± 9 % and the “delta MAP (peak MAP lowering)” value amounted to 19 ± 13 mmHg. In addition, in the assay on Male Sprague-Dawley rats [2] (saline control group), the “% of range (MAP lowering as % of MAPrange)” value amounted to 37 ± 15% and the “delta MAP (peak MAP lowering)” value is 21 ± 11 mmHg.
